For 27 molecules, IC50 results are on record in patent publication US11466034B2, “Compound functioning as bromodomain protein inhibitor, and composition” (Betta Pharmaceuticals Co., Ltd., priority 2017, dated 2022).

pIC50: −log10 of the molar value. A value given as a limit tells only on which side of the number the result lay.

One experiment addresses BRD4(D2) (Homo sapiens (Human), UniProt O60885). The experiment in a line: Inhibitory activity against BRD4(D2), HTRF assay. It counts as binding. Here is the method:
(§1) (+)-JQ1 was used as comparison compound, to evaluated the inhibitory activity of compounds of the invention against BRD4(D1) and BRD4(D2) in vitro.
(§2) The assays of BRD4 (D1) and BRD4 (D2) were conducted in a 384-well polystyrene plate. The test compounds were first serially diluted in DMSO and the test compound/DMSO were transferred to 384-well plates. The final concentration of DMSO in the assay was 0.1%. 2 volumes of protein/peptide mixture were added into 384-well plates, then 2 volumes of assay mixture were added, and shake for 30 s. The plate was incubated at room temperature for 2 h. Then the HTRF signal on EnVision was readed.
(§3) Use equation (1) to fit the date in Excel to obtain the value of the inhibition rate. Inhibition rate (%)=(maximum value−signal value)/(maximum value−minimum value)*100 Equation(1):
(§4) IC50 determination was performed by fitting the data using GraphPad Prism 5.0 software and equation (2). Y=bottom+(Top−bottom)/(1+10^((Log IC50−X)*HillSlope)); Equation(2): wherein, Y represents the percentage of inhibition (%); X represents the concentration of test compounds.
(§5) The IC50 data of the examples were provided in the following table, wherein, A stands for IC50<100 nM; B stands for IC50 is 100-300 nM; C stands for IC50>300 nM.

In a further experiment the target is BRD4(D1) (Homo sapiens (Human), UniProt O60885). The experiment in a line: Inhibitory activity against BRD4(D1), HTRF assay. It counts as binding. Here is the method:
as §1, §2, §3, §4, §5

`Cc1nc2ncc(-c3cn(C)c(=O)c4[nH]ccc34)cc2n1Cc1ccc(Cl)cc1` [Example 1, 4-(1-(4-chlorobenzyl)-2-methyl-1H-imidazo[4,5-b]pyridin-6-yl)-6-methyl-1H-pyrrolo[2,3-c]pyridin-7(6H)-one]: the pIC50 on BRD4(D2) (numeric values) was 8.60; against BRD4(D1) (numeric values), 8.15.

With `COc1ccc(Cn2c(C)nc3ncc(-c4cn(C)c(=O)c5[nH]ccc45)cc32)cc1` [Example 2, 4-(1-(4-methoxybenzyl)-2-methyl-1H-imidazo[4,5-b]pyridin-6-yl)-6-methyl-1H-pyrrolo[2,3-c]pyridin-7(6H)-one], the pIC50 was 8.52 against BRD4(D2) (numeric values) and 7.98 against BRD4(D1) (numeric values).

As to `CSc1ccc(Cn2c(C)nc3ncc(-c4cn(C)c(=O)c5[nH]ccc45)cc32)cc1` [Example 3, 6-methyl-4-(2-methyl-1-(4-(methylthio)benzyl)-1H-imidazo[4,5-b]pyridin-6-yl)-1H-pyrrolo[2,3-c]pyridin-7(6H)-one], the pIC50 against BRD4(D2) (numeric values) is 8.49; at BRD4(D1) (numeric values), 7.90.

On to `Cc1nc2ncc(-c3cn(C)c(=O)c4[nH]ccc34)cc2n1Cc1ccc(C(F)(F)F)cc1` [Example 4, 6-methyl-4-(2-methyl-1-(4-(trifluoromethyl)benzyl)-1H-imidazo[4,5-b]pyridin-6-yl)-1H-pyrrolo[2,3-c]pyridin-7(6H)-one], for which the pIC50 against BRD4(D2) (numeric values) was 8.40; against BRD4(D1) (numeric values), 7.84.

Consider `Cc1nc2ncc(-c3cn(C)c(=O)c4[nH]ccc34)cc2n1Cc1ccccc1` [Example 6, 4-(1-benzyl-2-methyl-1H-imidazo[4,5-b]pyridin-6-yl)-6-methyl-1H-pyrrolo[2,3-c]pyrid in-7(6H)one], for which the figures for the pIC50 against BRD4(D2) (numeric values) and against BRD4(D1) (numeric values) were 8.55 and 8.12, respectively.

For the molecule `Cc1nc2ncc(-c3cn(C)c(=O)c4[nH]ccc34)cc2n1C` [Example 7, 4-(1,2-dimethyl-1H-imidazo[4,5-b]pyridin-6-yl)-6-methyl-1,6-dihydro-7H-pyrrolo[2,3-c]pyridin-7-one], the pIC50 was 7.97 against BRD4(D2) (numeric values) and 7.28 at BRD4(D1) (numeric values).

Take `Cc1nc2ncc(-c3cn(C)c(=O)c4[nH]ccc34)cc2[nH]1` [Example 8, 6-methyl-4-(2-methyl-1H-imidazo[4,5-b]pyridin-6-yl)-1,6-dihydro-7H-pyrrolo[2,3-c]pyridin-7-one]: the pIC50 against BRD4(D2) (numeric values) is 8.22; at BRD4(D1) (numeric values), 7.40.

Consider `COC(=O)c1ccc(Cn2c(C)nc3ncc(-c4cn(C)c(=O)c5[nH]ccc45)cc32)cc1` [Example 9, methyl 4-((2-methyl-6-(6-methyl-7-oxo-6,7-dihydro-1H-pyrrolo[2,3-c]pyridin-4-yl)-1H-imidazo[4,5-b]pyridin-1-yl)methyl)benzoate], for which the negative logarithm of the IC50 (pIC50) at BRD4(D2) (class symbols) and against BRD4(D1) (class symbols) was 6.52 to 7.00 in each case.

`COc1ccc(Cn2c(C)nc3ncc(-c4cn(Cc5ccccc5)c(=O)c5[nH]ccc45)cc32)cc1` [Example 10, 6-benzyl-4-(1-(4-methoxybenzyl)-2-methyl-1H-imidazo[4,5-b]pyridin-6-yl)-1,6-dihydro-7H-pyrrolo[2,3-c]pyridin-7-one]: the pIC50 at BRD4(D2) (class symbols) and on BRD4(D1) (class symbols) was < 6.52 in each case.

On to `COc1ccc(Cn2c(C)nc3ncc(-c4cn(CC(C)C)c(=O)c5[nH]ccc45)cc32)cc1` [Example 11, 6-isobutyl-4-(1-(4-methoxybenzyl)-2-methyl-1H-imidazo[4,5-b]pyridin-6-yl)-1,6-dihydro-7H-pyrrolo[2,3-c]pyridin-7-one], for which the pIC50 against BRD4(D2) (class symbols) was 6.52 to 7.00; against BRD4(D1) (class symbols) it was < 6.52.

Regarding `CCn1cc(-c2cnc3nc(C)n(Cc4ccc(OC)cc4)c3c2)c2cc[nH]c2c1=O` [Example 12, 6-ethyl-4-(1-(4-methoxybenzyl)-2-methyl-1H-imidazo[4,5-b]pyridin-6-yl)-1,6-dihydro-7H-pyrrolo[2,3-c]pyridin-7-one], the pIC50 at BRD4(D2) (class symbols) and against BRD4(D1) (class symbols) was 6.52 to 7.00 each time.

Take `COc1ccc(Cn2c(C)nc3ncc(-c4c[nH]c(=O)c5[nH]c(C)cc45)cc32)cc1` [Example 13, 4-(1-(4-methoxybenzyl)-2-methyl-1H-imidazo[4,5-b]pyridin-6-yl)-2-methyl-1,6-dihydro-7H-pyrrolo[2,3-c]pyridin-7-one]: the pIC50 against BRD4(D2) (class symbols) and at BRD4(D1) (class symbols) was 6.52 to 7.00 throughout.

On to `COc1ccc(Cn2c(C)nc3ncc(-c4cn(Cc5nccs5)c(=O)c5[nH]ccc45)cc32)cc1` [Example 14, 4-(1-(4-methoxybenzyl)-2-methyl-1H-imidazo[4,5-b]pyridin-6-yl)-6-(thiazol-2-ylmethyl)-1,6-dihydro-7H-pyrrolo[2,3-c]pyridin-7-one], for which the values for the pIC50 at BRD4(D2) (class symbols) and against BRD4(D1) (class symbols) were < 6.52 and 6.52 to 7.00, respectively.

`COc1ccc(Cn2c(C)nc3ncc(-c4cn(Cc5ccn[nH]5)c(=O)c5[nH]ccc45)cc32)cc1` [Example 15, 4-(1-(4-methoxybenzyl)-2-methyl-1H-imidazo[4,5-b]pyridin-6-yl)-6-(pyrazol-2-methyl)-1,6-dihydro-7H-pyrrolo[2,3-c]pyridin-7-one]: the pIC50 is 6.52 to 7.00 at BRD4(D2) (class symbols) and < 6.52 against BRD4(D1) (class symbols).

For the molecule `COc1cccc(Cn2c(C)nc3ncc(-c4c[nH]c(=O)c5[nH]c(C)cc45)cc32)c1` [Example 16, 4-(1-(3-methoxybenzyl)-2-methyl-1H-imidazo[4,5-b]pyridin-6-yl)-2-methyl-1,6-dihydro-7H-pyrrolo[2,3-c]pyridin-7-one], the pIC50 against BRD4(D2) (class symbols) is > 7.00; against BRD4(D1) (class symbols) it was 6.52 to 7.00.

Turning to `Cc1nc2ncc(-c3cn(Cc4cccnc4)c(=O)c4[nH]ccc34)cc2n1Cc1ccc(Cl)cc1` [Example 17, 4-(1-(4-chlorobenzyl)-2-methyl-1H-imidazo[4,5-b]pyridin-6-yl)-6-(pyridin-3-ylmethyl)-1,6-dihydro-7H-pyrrolo[2,3-c]pyridin-7-one], the pIC50 at BRD4(D2) (class symbols) and against BRD4(D1) (class symbols) was < 6.52 throughout.

Consider `COc1ccc(Cn2c(C)nc3ncc(-c4cn(C)c(=O)c5[nH]ccc45)nc32)cc1` [Example 20, 4-(1-(4-methoxybenzyl)-2-methyl-H-imidazo[4,5-b]pyrazin-6-yl)-6-methyl-1H-pyrrol o[2,3-c]pyridin-7(6H)-one], for which the negative-log IC50 (pIC50) is 8.60 against BRD4(D2) (numeric values) and 7.89 against BRD4(D1) (numeric values).

As to `Cc1nc2ncc(-c3cn(C)c(=O)c4[nH]ccc34)nc2n1C(C)c1ccc(Cl)cc1` (centres unmarked) [Example 21, 4-(1-(1-(4-chlorophenyl)ethyl)-2-methyl-1H-imidazo[4,5-b]pyrazin-6-yl)-6-methyl-1,6-dihydro-7H-pyrrolo[2,3-c]pyridin-7-one], the pIC50 against BRD4(D2) (numeric values) is 8.74; at BRD4(D1) (numeric values), 8.21.

On to `Cc1nc2ncc(-c3cn(C)c(=O)c4[nH]ccc34)nc2n1Cc1ccccc1` [Example 22, 4-(1-benzyl-2-methyl-1H-imidazo[4,5-b]pyrazin-6-yl)-6-methyl-1H-pyrrolo[2,3-c]pyrid in-7(6H)-one], for which the pIC50 against BRD4(D2) (class symbols) and on BRD4(D1) (class symbols) was > 7.00 in each case.

Consider `Cc1nc2ncc(-c3cn(C)c(=O)c4[nH]ccc34)nc2n1Cc1cc(C(F)(F)F)ccc1F` [Example 24, 4-(1-(2-fluoro-5-trifluoromethylbenzyl)-2-methyl-1H-imidazo[4,5-b]pyrazin-6-yl)-6-methyl-1H-pyrrolo[2,3-c]pyridin-7(6H)-one], for which the pIC50 on BRD4(D2) (class symbols) and on BRD4(D1) (class symbols) was > 7.00 throughout.

For `Cc1nc2ncc(-c3cn(C)c(=O)c4[nH]ccc34)nc2n1Cc1ccc(Cl)cc1F` [Example 26, 4-(1-(2-fluoro-4-chlorobenzyl)-2-methyl-H-imidazo[4,5-b]pyrazin-6-yl)-6-methyl-H-pyrrolo[2,3-c]pyridin-7(6H)-one], the pIC50 against BRD4(D2) (class symbols) and at BRD4(D1) (class symbols) was > 7.00 each time.

`Cc1nc2ncc(-c3cn(C)c(=O)c4[nH]ccc34)nc2n1Cc1ccc(C(F)(F)F)c(F)c1` [Example 28, 4-(1-(3-fluoro-4-trifluoromethylbenzyl)-2-methyl-1H-imidazo[4,5-b]pyrazin-6-yl)-6-methyl-1H-pyrrolo[2,3-c]pyridin-7(6H)-one]: the pIC50 against BRD4(D2) (class symbols) and against BRD4(D1) (class symbols) was > 7.00 in each case.

Take `Cc1nc2ncc(-c3cn(C)c(=O)c4[nH]ccc34)nc2n1Cc1ccc(C(F)(F)F)c(Cl)c1` [Example 29, 4-(1-(3-chloro-4-trifluoromethylbenzyl)-2-methyl-1H-imidazo[4,5-b]pyrazin-6-yl)-6-methyl-1H-pyrrolo[2,3-c]pyridin-7(6H)-one]: the pIC50 on BRD4(D2) (class symbols) and against BRD4(D1) (class symbols) was > 7.00 each time.

Regarding `Cc1nc2ncc(-c3cn(C)c(=O)c4[nH]ccc34)nc2n1Cc1cccc(Cl)c1` [Example 30, 4-(1-(3-chlorobenzyl)-2-methyl-1H-imidazo[4,5-b]pyrazin-6-yl)-6-methyl-1H-pyrrolo[2,3-c]pyridin-7(6H)-one], the pIC50 against BRD4(D2) (class symbols) and against BRD4(D1) (class symbols) was > 7.00 throughout.

With `Cc1nc2ncc(-c3cn(C)c(=O)c4[nH]ccc34)nc2n1Cc1ccc(F)cc1F` [Example 31, 4-(1-(2,4-difluorobenzyl)-2-methyl-1H-imidazo[4,5-b]pyrazin-6-yl)-6-methyl-1H-pyrrolo[2,3-c]pyridin-7(6H)-one], the pIC50 against BRD4(D2) (class symbols) and against BRD4(D1) (class symbols) was > 7.00 in each case.

As to `Cc1nc2ncc(-c3cn(C)c(=O)c4[nH]ccc34)nc2n1Cc1ccc(Br)cc1` [Example 32, 4-(1-(4-bromobenzyl)-2-methyl-1H-imidazo[4,5-b]pyrazin-6-yl)-6-methyl-H-pyrrolo[2,3-c]pyridin-7(6H)-one], the pIC50 against BRD4(D2) (class symbols) and on BRD4(D1) (class symbols) was > 7.00 in each case.

On to (+)-JQ1 [reference compound], for which, at BRD4(D1) (numeric values), the pIC50 was 7.80.
